The record followed here is patent US11401243B2, “Quinoline derived small molecule inhibitors of nicotinamide N-methyltransferase (NNMT) and uses thereof” (priority 2017, dated 2022).

Entries after “also recorded” stand apart in the source; their conditions may differ. Like-named read-outs stand apart in the source and are kept apart here.

Broadly, the IC50 is the point on the concentration scale where inhibition reaches its midpoint. What is called efflux ratio is the permeability from basolateral to apical divided by that in the opposite direction, in the common usage. In general, Papp A→B refers to how fast a substance crosses the layer from the apical side. Low readings indicate slow passage, high ones fast passage. Broadly, the Papp B→A is the apparent permeability from the basolateral to the apical side of a cell layer.

Series [1] has as its target T1, human NNMT (mt-hNNMT) (Homo sapiens, UniProt P40261, E101A/E103A/K100A).
T1 sequence (P40261 1-261 K100A/E101A/E103A limits assumed): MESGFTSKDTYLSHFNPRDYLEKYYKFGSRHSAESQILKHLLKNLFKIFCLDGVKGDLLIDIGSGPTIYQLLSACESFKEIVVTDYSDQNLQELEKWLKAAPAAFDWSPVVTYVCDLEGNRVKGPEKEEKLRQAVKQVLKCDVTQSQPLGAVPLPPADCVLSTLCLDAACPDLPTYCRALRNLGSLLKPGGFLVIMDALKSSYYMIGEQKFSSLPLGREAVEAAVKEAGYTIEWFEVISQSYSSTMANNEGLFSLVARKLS
The experiment in a line: NNMT activity assay (HPLC-UV detection of MNA), NNMT IC50 curves. As to conditions: for IC50: NI = no observable inhibition.

Series [2] can be described thus: Parallel artificial membrane permeability assay (PAMPA). The conditions noted are these: for Flux / Papp at 4 h, 400 μM: 400 μM in PBS, 4 h, room temperature; for Permeability Classification (passive transport): BCS classification; for Papp at 4 h, 400 μM: read-out: Flux. It counts as in vitro ADME. On the procedure:
Samples were tested in triplicates in three separate experiments.
(In PAMPA a lipid-coated filter parts donor from acceptor wells.)

Series [3] can be described thus: Bi-directional permeability assay with Caco-2 cells. The conditions noted are these: human; for efflux ratio at 2 h, 10 μM: Caco-2; for Papp A→B at 2 h, 10 μM / Papp B→A at 2 h, 10 μM: Caco-2, pH 7.4. For orientation: Passage across Caco-2 layers is used to estimate intestinal permeability.
Series [4] deals with Caco-2 cells. Described as above. The conditions noted are these: Caco-2.
Series [5] has as its system 3T3-L1 pre-adipocytes cells. As to the kind of experiment: MTT cell viability assay. The conditions noted are these: 3T3-L1 pre-adipocytes, 24 h; for cytotoxicity: 600 μM (highest concentration tested). The series is classed as cell-based. As for the experimental part: Cells were treated for 24 h with 0.1-600 μM NNMT inhibitors in cell culture media. A 24 h time point was chosen based on a previous report of using this time period for transfecting or treating 3T3-L1 cells with NNMT anti-sense oligonucleotides or a small molecule NNMT product inhibitor (1-MNA), respectively, for phenotypic measures. MTT (3-(4,5-dimethylthiazol-2-yl)-2,5-diphenyltetrazolium bromide) (ATCC; Manassas, Va., USA) was added to each well and assayed according to the manufacturer's instructions. Absorbance corresponding to the amount of formazan dye produced by treated cells was normalized to that produced by control (untreated) cells to calculate % viable cells in the treated samples.

Series [6] relates to NNMT activity in 3T3-L1 pre-adipocytes and differentiated adipocytes. The experiment in a line: Quantitative measurement of NNMT reaction product 1-MNA in cultured cells (LC/MS/MS). The series is classed as cell-based. The conditions noted are these: 10 μM, 24 h. As for the experimental part:
Differentiation of 3T3-L1 pre-adipocytes. […] Briefly, standard culture media was supplemented with scheduled addition of adipogenic agents [3-isobutyl-1methyl xanthine (IBMX), Sigma Aldrich; MO, USA), dexamethasone (Sigma Aldrich; MO, USA), insulin (Gibco Life Technologies Inc.; Grand Island, N.Y., USA)] over 10 days to promote differentiation of 3T3-L1 fibroblasts into adipocytes; a combination of 1 mM IBMX, 1 μM dexamethasone, and 10 μg/ml of insulin in media were added to fully confluent 3T3-L1 fibroblasts for three days (days 0-3) to initiate differentiation. At day 3, the media was replaced with culture media supplemented with insulin (10 μg/ml). After day 6, cells were maintained in culture media until described experiments were begun (days 8-10).
Cellular 1-MNA concentrations were determined using an ultra-sensitive high-resolution AB Sciex 6500 Q-trap mass spectrometer coupled to an Agilent 1260 ultra-high pressure liquid chromatography (LC/MS/MS) system. Using multiple reaction monitoring (MRM) positive ion mode, the 1-MNA NNMT reaction product was quantified from peak area ratios using AB Sciex Analyst and MultiQuant 2.1 software and the parent precursor and Q3 masses set to m/z 137.1 and 94.1, respectively. Fragment ions at m/z of 92.1 and 77.9 were additionally used for the detection and confirmation of 1-MNA, respectively. […]. To determine the effect of NNMT inhibitor on NNMT activity in the pre-adipocytes and differentiated adipocytes (8×10^4 cells/well seeded prior to beginning differentiation), cells were treated with 30 μM inhibitor for 24 h. Similarly, to compare the relative effects of multiple NNMT inhibitors on NNMT activity in cultured adipocytes, differentiated adipocytes in 6-well plates were treated with 10 μM test compound for 24 h. Following treatment, media was replaced with 80% (v/v) methanol (cooled to −80° C.) containing 500 nmol 6-chloronicotinamide (6-CN) as an internal standard (IS) to extract cellular metabolites. Adherent cells were scrapped, then centrifuged at 4° C. and 13000 g for 15 min, and the resulting supernatants processed using established protocols. […]. Data were subsequently normalized to the IS peak area and transformed as % control values for cross-sample comparisons. […] Choice of inhibitor concentrations and time period was chosen based on the results from the MTT studies.

Where [7] appears, read: NNMT Inhibition IC50, mean ± SD of duplicate or triplicate measurements.

`CC(C(=O)c1ccc(Br)cc1)[n+]1cccc2ccccc21` (stereo not shown) [1v] had a half-maximal inhibitory concentration (IC50) in series [1] (setting [7]) of over 1000 µM.
On to `c1ccc2ncccc2c1` [Quinoline], for which, in series [2], the Flux was found to be 3.39e-05 cm/s and the “Permeability Classification (passive transport)” value (“Permeability Classification” below) is given as “High permeability”.
`OC(CBr)C[n+]1cc(Br)cc2ccccc21` (stereo not shown) [2e] gave an IC50 in series [1] (setting [7]) of over 1000 µM.
On the same count and under the same terms, as for `COCC[n+]1cccc2ccccc21` [1t], the figure is over 1000 µM; as for `CC(=O)C[n+]1cccc2cc(O)ccc21` [2h], over 1000 µM; as for `C[n+]1cccc2cc(F)ccc21` [1k], 5.7 ± 1.8 µM.
With `C[n+]1cccc2cccc(O)c21` [1r], the IC50 in series [1] (setting [7]) amounted to 95.2 ± 21 µM.
Take `C[n+]1cccc2ccc(N)cc21` [1o]: in series [3], the efflux ratio at 2 h, 10 μM is 1.52; the Papp A→B at 2 h, 10 μM was found to be 260 nm/s; the Papp B→A at 2 h, 10 μM came out at 396 nm/s. For the same compound, in series [4] (listed as 7-amino-1MQ), the “Classification (active transport / efflux)” value is “no detectable efflux; also recorded: High permeability”. In addition, in series [1] (setting [7]), the IC50 was determined as 2.6 ± 0.5 µM. In addition, the cell viability result in series [5] (10 μM) is on record as “did not impact cell viability”. The compound further came in with a cytotoxicity in series [5] of about 40%. Also, the “cytotoxicity relative to untreated cells” value in series [5] (100-300 μM) is given as “modest cytotoxicity”. In addition, the Papp at 4 h, 400 μM in series [2] was 20.5 nm/s. In series [2] (listed as 7-amino-1MQ), the “Permeability Classification” value was “high passive and active transport; also recorded: High permeability”.
In series [1] (setting [7]), `CC[n+]1cccc2cccc(C)c21` [2b] came in with an IC50 of 3.1 ± 1.4 µM.
In the case of `C[n+]1cc(N)cc2cc(F)ccc21` [2j, 3-amino-6-fluoro-1-methylquinolin-1-ium], the “1-MNA levels in differentiated adipocytes relative to control” value in series [6] was “significantly decreased”. Also, the “inhibitory activity against NNMT (in words)” value in series [1] is on record as “inhibitory activity”. In series [1] (setting [7]), the IC50 stood at 1.2 ± 0.2 µM. In addition, in series [2], the Papp at 4 h, 400 μM was determined as 10.8 nm/s and the “Permeability Classification” value was “Moderate permeability”.
Regarding `C[n+]1ccc(Cl)c2cccc(C(F)(F)F)c21.O=S(=O)([O-])C(F)(F)F` [2l, 4-chloro-1-methyl-8-(trifluoromethyl)quinolin-1-ium Trifluoromethanesulfonate], the “inhibitory activity against NNMT (in words)” value in series [1] is listed as “inhibitory activity”. This compound displayed a 50% inhibitory concentration (IC50) in series [1] (setting [7]) of over 1000 µM.
Consider `Cc1cc[n+](C)c2ccccc12` [1h], for which 7.5 ± 2.2 µM corresponded to half-maximal inhibition in series [1] (setting [7]) (IC50).
The same measure, in the same setting: as for `C[n+]1cc(Nc2ccccc2)cc2ccccc21` [1g], the figure is over 1000 µM.
In the case of `C[n+]1cccc2ccc(O)cc21` [1p], in series [1] (setting [7]), the IC50 worked out at 709 ± 179 µM.
Consider `CNC(=C[N+](=O)[O-])NCCSCc1ccc(CN(C)C)o1` [Ranitidine, reference compound], for which the “Classification (active transport / efflux)” value in series [4] is “Low permeability”.
Consider `O=C1C2CC=C(Cl)CC2C(=O)N1CCC[n+]1cccc2ccccc21` (stereo not shown) [1w], for which, in series [1] (setting [7]), the IC50 is over 1000 µM.
Consider `Cc1ccc2c(ccc[n+]2CC(=O)c2ccccc2)c1` [2i], for which, in series [1] (read-out: NNMT Inhibition IC50, mean ± SD of duplicate or triplicate measurements), the IC50 was over 1000 µM.
In the case of `COc1ccc2c(ccc[n+]2C)c1` [1n], in series [1] (setting [7]), the IC50 was found to be 120 ± 50.1 µM.
`Cc1ccc2c(ccc(C)[n+]2C)c1` [2n] returned an IC50 in series [1] (setting [7]) of over 1000 µM.
The same measure, in the same setting: as for `C[n+]1cc(C#N)cc2ccccc21` [1e], the figure is 23.8 ± 5.6 µM.
On the same count and under the same terms, the figure for `Cc1cc[n+](CCO)c2ccccc12` [2c] is 33.5 ± 9.9 µM; for `CC(=O)C[n+]1cccc2cccc(O)c21` [2d] it is 40.6 ± 13 µM.
As to `C[n+]1c(N)c(N)cc2ccccc21` [2m], the efflux ratio at 2 h, 10 μM in series [3] was found to be 4.03. The compound also registered a Papp A→B at 2 h, 10 μM in series [3] of 52.7 nm/s. The compound further showed a Papp B→A at 2 h, 10 μM in series [3] of 212 nm/s. Also, the “Classification (active transport / efflux)” value in series [4] (listed as 2,3-diamine-1MQ) is “Moderate permeability”; in series [4] (listed as 2,3-diamino-1MQ) it was “moderate bi-directional active transport with moderate efflux ratio”. Besides, in series [6], the “1-MNA levels in differentiated adipocytes relative to control” value is recorded as “significantly decreased”. The “inhibitory activity against NNMT (in words)” value in series [1] is recorded as “inhibitory activity”. In series [1] (setting [7]), this compound had an IC50 of 2.8 ± 0.5 µM. The cell viability result in series [5] (300 μM) is listed as “did not impact cell viability”. In series [5], this compound returned a cytotoxicity of about 40%. Also, the Papp at 4 h, 400 μM in series [2] was found to be 39 nm/s. Further, the “Permeability Classification” value in series [2] (listed as 2,3-diamine-1MQ) was “High permeability”; in series [2] (listed as 2,3-diamino-1MQ), “high passive permeability”.
As for `CC[n+]1cccc2ccccc21` [1s], inhibition in series [1] (setting [7]) was half-maximal at 27.1 ± 5.4 µM (IC50).
`CC[n+]1ccc(C)c2ccccc21` [2a] gave an IC50 in series [1] (setting [7]) of 8.7 ± 2.6 µM.
Turning to `C[n+]1c(N)ccc2ccccc21.[I-]` [1c, 2-amino-1-methylquinolin-1-ium Iodide], the “inhibitory activity against NNMT (in words)” value in series [1] is given as “exhibited inhibitory activity”. Also, the IC50 in series [1] (setting [7]) stood at 6.3 ± 1.1 µM.
`CNc1cc2ccccc2[n+](C)c1.[I-]` [1f, 1-methyl-3-(methylamino)quinolin-1-ium Iodide]: the “inhibitory activity against NNMT (in words)” value in series [1] was “exhibited inhibitory activity”. In addition, it took 4 ± 1.5 µM to reach half-maximal inhibition in series [1] (setting [7]) (IC50).
On to “1-methylnicotinamide [reference compound]”, for which, in series [2], the Flux is 0 cm/s and the “Permeability Classification” value is listed as “No permeability”. Further, the “Permeability Classification” value in series [2] (listed as 1-MNA) is “no passive permeability”.
In turn, `O=C(C[n+]1cccc2ccccc21)c1ccccc1` [1u] had an IC50 in series [1] (setting [7]) of over 1000 µM.
With `CCC[n+]1cccc2cc(C)ccc21` [2f], in series [1] (setting [7]), the IC50 was over 1000 µM.
On the same count and under the same terms, as for `CC(=O)C[n+]1cccc2cc(Cl)ccc21` [2g], the figure is over 1000 µM; as for `Cc1ccc2ccccc2[n+]1C` [1b], 21 ± 2.1 µM.
In the case of `C[n+]1cc(N)cc2ccccc21` [1d], inhibition in series [1] (setting [7]) was half-maximal at 2.9 µM (IC50).
In the case of `Cc1ccc(C(F)(F)F)c2ccc[n+](C)c12` [2k], the “inhibitory activity against NNMT (in words)” value in series [1] is given as “inhibitory activity”. In series [1] (setting [7]), 87 ± 26.1 µM corresponded to half-maximal inhibition (IC50).
As to `C[n+]1cccc2ccccc21` [1a, 1-methylquinolinium], in series [1] (setting [7]), the IC50 is 12.1 ± 3.1 µM. In addition, the Flux in series [2] came to 0 cm/s. Further, the “Permeability Classification” value is on record as “No permeability” in series [2] and “lacked passive diffusion properties” in series [2] (listed as 1-MQ).
Take `C[n+]1ccc(N)c2ccccc21` [1i]: inhibition in series [1] (setting [7]) was half-maximal at 11.4 ± 2.1 µM (IC50).
For the compound `C[n+]1cccc2cc(N)ccc21.[I-]` [1m, 6-amino-1-methylquinolin-1-ium Iodide], the “inhibitory activity against NNMT (in words)” value in series [1] is listed as “exhibited inhibitory activity”. The compound also came in with an IC50 in series [1] (setting [7]) of 34.4 ± 9.6 µM.
